Data taken from patent US12692288B2, “Crystalline and liquid crystalline 25-hydroxy-cholest-5-en-3-sulfate sodium and methods for preparing same” (Medicis Pharmaceutical Corporation, priority 2019, dated 2026).
One block for each molecule: values may come before it.

Experiments:
Type in all cases: physicochemical
[1] = Dynamic vapor sorption/desorption (DVS), VTI SGA-100; details: for form of material recovered after DVS, by XRPD: after sorption/desorption 5% to 95% RH
Protocol: Moisture sorption/desorption data were collected on a VTI SGA-100 Vapor Sorption Analyzer. NaCl and PVP were used as calibration standards. Samples were not dried prior to analysis. […] The equilibrium criterion used for analysis was less than 0.0100% weight change in 5 minutes with a maximum equilibration time of 3 hours. Data were not corrected for the initial moisture content of the samples.

[2] = Dynamic Vapor Sorption test (SMS DVS Intrinsic), Example 23; details: 25° C.
Protocol: Dynamic Vapor Sorption (DVS) was measured using an SMS (Surface Measurement Systems) DVS Intrinsic. [table]

[3] = Physical stability of forms on exposure to humidity, temperature or vacuum, by XRPD
Source text: X-ray powder diffraction patterns were collected with a PANalytical X'Pert PRO MPD or PANalytical Empyrean diffractometer using an incident beam of Cu radiation produced using a long, fine-focus source. An elliptically graded multilayer mirror was used to focus Cu Kα x-rays through the specimen and onto the detector. […] A specimen of the sample was sandwiched between 3-μm-thick films and analyzed in transmission geometry. A beam-stop, short anti-scatter extension, and anti-scatter knife edge were used to minimize the background generated by air. Soller slits for the incident and diffracted beams were used to minimize broadening and asymmetry from axial divergence. Diffraction patterns were collected using a scanning position-sensitive detector (X'Celerator) located 240 mm from the specimen and Data Collector software v. 2.2b or 5.5. All images were produced with the instrument labeled as X'Pert PRO MPD regardless of the instrument used.
X-ray powder diffraction patterns were collected with a PANalytical X'Pert PRO MPD diffractometer using an incident beam of Cu Kα radiation produced using a long, fine-focus source and a nickel filter. The diffractometer was configured using the symmetric Bragg—Brentano geometry. […] A specimen of the sample was packed in a well. Anti-scatter slits were used to minimize the background generated by air. Soller slits for the incident and diffracted beams were used to minimize broadening from axial divergence. Diffraction patterns were collected using a scanning position-sensitive detector (X'Celerator) located 240 mm from the sample and Data Collector software v. 2.2b.

[4] = Water activity slurries in aqueous solvent mixtures, solid phase by XRPD
Source text: The effect of water activity (aw) on the hydration state can be investigated through competitive water activity trituration experiments (slurries) in various aqueous solvent mixtures. The resulting solid phase can be characterized by x-ray powder diffraction. The experiments can establish the physically stable form at various aw. Water activity can also be related to relative humidity in that RH %=aw×100. Therefore, it is possible to directly relate the stability of an anhydrous/hydrate system in slurry experiments to solid-state stability. The slurry technique at controlled water activities can provide an accurate method of rapidly predicting the physically stable form in anhydrous/hydrate systems. […] The times, temperatures, and humidity are approximate. As with Table 1, the term “B” means birefringent when viewed by polarized light microscopy with cross polars.
Solutions were prepared by adding enough solids to a given solvent so that excess solids were present. The mixture was then agitated in a sealed vial at either ambient or elevated temperature. After a given amount of time, the solids were isolated for analysis.

[5] = Variable temperature XRPD (VT-XRPD)
Source text: (§1) X-ray powder diffraction patterns were collected with a PANalytical X'Pert PRO MPD diffractometer using an incident beam of Cu Kα radiation produced using a long, fine-focus source and a nickel filter. The diffractometer was configured using the symmetric Bragg—Brentano geometry. Data were collected and analyzed using Data Collector software v. 2.2b. […] A specimen of the sample was packed in a nickel-coated copper well. Antiscatter slits were used to minimize the background generated by air scattering. Soller slits for the incident and diffracted beams were used to minimize broadening from axial divergence. Diffraction patterns were collected using a scanning position-sensitive detector (X'Celerator) located 240 mm from the sample.
An Anton Paar TTK 450 stage was used to collect in-situ x-ray powder diffraction patterns as a function of temperature. The sample was heated with a resistance heater located directly under the sample holder, and the temperature was monitored with a platinum-100 resistance sensor located in the specimen holder. The heater was powered and controlled by an Anton Paar TCU 100 interfaced with Data Collector software.

[6] = Variable humidity XRPD (VH-XRPD); details: for time to complete dehydration/conversion to Form XIII: exposure to 0% RH
Source text: as §1, with “air.” for “air scattering.”, “sample and Data Collector software v. 2.2b.” for “sample.”
An Anton Paar temperature-humidity chamber (THC) was used to collect in-situ x-ray powder diffraction patterns as a function of humidity. The temperature of the specimen was controlled with a Peltier thermoelectric device located directly under the specimen holder and monitored with a platinum-100 resistance sensor located in the specimen holder. The thermoelectric device was powered and controlled by an Anton Paar TCU 50 interfaced with Data Collector software.
The humidity was generated with an RH-200 manufactured by VTI Inc. and carried by a flow of nitrogen gas. The humidity and temperature were monitored by a Rotronic HygroClip sensor located next to the specimen inside the THC.

[7] = from 5 to 25% RH, screening material, mixture of Form I and Form II
[8] = from 25 to 85% RH, screening material, mixture of Form I and Form II

water corresponding to weight gain (DVS) [1, 7]: 1.5 mol/mol water | weight gain (DVS) [1, 7]: approximately 5 wt % | water corresponding to weight gain (DVS) [1, 8]: 1.8 mol/mol water | weight gain (DVS) [1, 8]: ~6 wt % | weight gain (DVS) ([1]; from 85 to 95% RH): ~6 wt % | hygroscopicity (DVS isotherm) ([1]; screening material, mixture of Form I and Form II): hygroscopic | hygroscopicity (DVS test) [2]: hygroscopic | moisture reversibly absorbed ([2]; below 30% RH): 7.0% | water absorbed ([2]; by 95% RH): 8.5% | form after heat exposure, by XRPD ([3]; briefly exposed to 130° C., screening material, mixture of Form I and Form II): mixture of Forms I, II, and XIII | Result (form) of water activity slurry ([4]; 0.73 aw, 94:06 ACN/H2O, 8 days, approximately room temperature): I + | Result (form) of water activity slurry ([4]; combination of samples from 0.5 aw and 0.38 aw, 56 days, filtered and dried under N2 for 30 min.): I +
SMILES: C[C@H](CCCC(C)(C)O)[C@H]1CCC2C3CC=C4C[C@@H](OS(=O)(=O)[O-])CC[C@]4(C)C3CC[C@@]21C.[Na+] (stereo partly drawn) [25HC3S sodium, Sodium [(3S,10R,13R,17R)-17-[(1R)-5-hydroxy-1,5-dimethyl-hexyl]-10,13-dimethyl-2,3,4,7,8,9,11,12,14,15,16,17-dodecahydro-1H-cyclopenta[a]phenanthren-3-yl] sulfate]
form of material recovered after DVS, by XRPD [1]: predominantly Form I with an additional peak near 8.8° | form after humidity exposure, by XRPD ([3]; 75% RH for 10 days, screening material, mixture of Form I and Form II): predominately Form I and two additional peaks near 4.4°2θ and 8.8°2θ

SMILES: C[C@H](CCCC(C)(C)O)[C@H]1CC[C@H]2[C@@H]3CC=C4C[C@@H](OS(=O)(=O)[O-])CC[C@]4(C)[C@H]3CC[C@]12C.[Na+] [Form I, 25HC3S sodium]
temperature by which decomposition product trisodium hydrogen disulfate, Na3H(SO4)2, was evident [5]: ≤ 170 °C | form shown after dehydration by heating ([5]; heating to 170° C. and then dropping to 135° C.): Form XIII | behaviour upon exposure to 0% RH ([6]; 0% RH): dehydrate within minutes to Form XIII | time to complete dehydration/conversion to Form XIII [6]: 20 min | hygroscopicity [3]: hygroscopic | form change on drying ([3]; exposure to either 0% RH or 70° C. under vacuum): dehydrated Form I to Form XIII | water activity above which Form I is believed to form liquid crystal Form V [4]: above 0.73 aw

SMILES: C[C@H](CCCC(C)(C)O)[C@H]1CC[C@H]2[C@@H]3CC=C4C[C@@H](OS(=O)(=O)[O-])CC[C@]4(C)[C@H]3CC[C@]12C.[Na+] [Form II, 25HC3S sodium]
water accommodated in fully hydrated state ([1]; DVS sorption isotherm at 85% RH (FIG. 16)): approximately 3 mol/mol of water | form of material recovered after DVS, by XRPD [1]: mixture of Form II and Form V | water corresponding to weight gain (DVS) ([1]; from 5 to 55% RH): 1 mol/mol water | weight gain (DVS) ([1]; from 5 to 55% RH): approximately 3.5 wt % | water corresponding to weight gain (DVS) ([1]; from 55 to 85% RH): 2 mol/mol water | weight gain (DVS) ([1]; from 55 to 85% RH): ~7 wt % | weight gain (DVS) ([1]; from 85 to 95% RH): ~7 wt % | form observed by XRPD at elevated temperature ([5]; 135° C.): still observed | form change in variable humidity XRPD ([6]; ambient temperature, 0% to 85% RH): a form change did not occur | relative humidity of exposure at which the form converts to Form V [3]: ≥ 75 % RH | time to conversion to Form V ([3]; exposure to 75% RH): up to 35 days | form stability by XRPD ([3]; stored at 0% RH for up to 35 days): remained unchanged | form stability by XRPD ([3]; under dry nitrogen for up to 4 days): remained unchanged

SMILES: C[C@H](CCCC(C)(C)O)[C@H]1CC[C@H]2[C@@H]3CC=C4C[C@@H](OS(=O)(=O)[O-])CC[C@]4(C)[C@H]3CC[C@]12C.[Na+] [Form III, 25HC3S sodium]
form change on heating ([3]; 58° C. and vacuum overnight, or 130° C.): desolvates to another anhydrous form, Form IX | form change at ambient conditions [3]: desolvates to Form II

SMILES: C[C@H](CCCC(C)(C)O)[C@H]1CC[C@H]2[C@@H]3CC=C4C[C@@H](OS(=O)(=O)[O-])CC[C@]4(C)[C@H]3CC[C@]12C.[Na+] [Form V, 25HC3S sodium]
physical stability by XRPD ([3]; exposure to 55° C. and vacuum for 1 day): remained Form V | physical stability by XRPD ([3]; storage at ambient conditions for 25 days): no changes observed | water activity of aqueous solvent mixture slurries from which the form resulted [4]: above 0.73 aw

SMILES: C[C@H](CCCC(C)(C)O)[C@H]1CC[C@H]2[C@@H]3CC=C4C[C@@H](OS(=O)(=O)[O-])CC[C@]4(C)[C@H]3CC[C@]12C.[Na+] [Form XIII, 25HC3S sodium]
relative humidity before which Form XIII hydrates to Form I ([6]; increasing humidity): < 25 % RH | form change at ambient conditions [3]: quickly hydrates to Form I

SMILES: C[C@H](CCCC(C)(C)O)[C@H]1CC[C@H]2[C@@H]3CC=C4C[C@@H](OS(=O)(=O)[O-])CC[C@]4(C)[C@H]3CC[C@]12C.[Na+] [Forms I+XIII, 25HC3S sodium]
time to complete dehydration/conversion to Form XIII [6]: ≤ 20 min | form change on exposure to humidity ([6]; isolated at 15% RH, exposed to 25% RH, held minimum one hour): converted to Form I
